Measured values taken from patent US7214669B2, “Tetracycline derivatives and methods of use thereof” (Tetragenex Pharmaceuticals, Inc., priority 2001, dated 2007).
pIC50: −log10 of the molar value. Where “and” joins values, the source holds several entries; their conditions need not be identical. Identical values can stand only once.

Key:
Human recombinant MMP1 = target: T1, Human recombinant MMP1 (Homo sapiens, UniProt P03956); test: MMP1 (Collagenase-1) inhibition, 14C collagen release; type: biochemical; conditions: 35° C., 5 hours; read-out: MMP-1 inhibitory activity, IC50
T1 sequence (P03956 100-469): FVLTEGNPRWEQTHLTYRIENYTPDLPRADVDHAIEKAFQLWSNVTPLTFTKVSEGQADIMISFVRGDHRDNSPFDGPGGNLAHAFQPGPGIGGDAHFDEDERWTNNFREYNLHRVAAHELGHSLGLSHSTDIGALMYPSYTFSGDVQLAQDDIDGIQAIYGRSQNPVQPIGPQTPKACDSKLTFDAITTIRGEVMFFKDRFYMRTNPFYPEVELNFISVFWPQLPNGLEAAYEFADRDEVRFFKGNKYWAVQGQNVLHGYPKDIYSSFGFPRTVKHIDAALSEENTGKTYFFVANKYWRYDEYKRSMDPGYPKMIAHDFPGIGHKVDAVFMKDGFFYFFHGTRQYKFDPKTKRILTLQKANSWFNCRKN
Procedure: Protocol for Measuring MMP1 (Collagenase-1) Inhibition by Tetracycline Derivatives
MMP1 activity was determined by the release of soluble ^14C labelled collagen fragments from ^14C acetylated rat skin type I collagen (Methods in Enzymology 80 711, 1981).
• 100 μg ^14C labelled rat skin type I collagen (5–6000 dpm) • 50 mM Tris HCl pH 7.9 • 15 mM CaCl2 0.02% azide • Human recombinant MMP1 3–4 nM • ±Tetracycline (up to 1 mM) in a total volume of 300 μl.
Incubations were at 35° C. for 5 hours. Uncleaved collagen fibrils (which form within the first 10 minutes) were removed by centrifugation at 10,000 g, 4° C., 10 minutes. 200 μl supernatant were counted in Packard Opti Phase Supermix scintillation fluid using a scintillation counter. Only data derived from within the linear part of the assay (10–70% lysis of the collagen) were utilized. Based on percentage inhibition of the activity of MMP1 alone by a range of concentrations of each sample, the IC50 value for each tetracycline was calculated by linear regression analysis.

Human recombinant MMP9 = Human recombinant MMP9 (Homo sapiens, UniProt P14780); test: MMP9 (Gelatinase B) inhibition, 14C gelatin release; type: biochemical; conditions: 37° C., 16 hours; read-out: MMP-9 inhibitory activity, IC50
Procedure: Protocol for Measuring MMP9 (Gelatinase B) Inhibition
MMP9 activity was determined by the release of trichloracetic acid, TCA soluble fragments from ^14C acetylated rat skin type I (Methods in Enzymology 248, 470, 1995. Biochem. J. 195, 1981)
• 100 μg ^14C labelled gelatin (collagen denatured 60° C. 20 min) • 50 mM Tris HCl pH 7.9 • 15 mM CaCl2, 0.02% azide • Human recombinant MMP9, 1.2–2 nM • ±Tetracycline (up to 1 mM) in a total volume of 250 μl.
Incubations were at 37° C. for 16 hours. The incubations were stopped by cooling the incubations and addition of 50 μl cold 90% (w/v) trichloracetic acid with careful mixing. TCA precipitation was allowed to proceed for 15 minutes at 4° C. prior to centrifugation at 10,000 g for 10 minutes at 4° C. 200 μl of the TCA supernatant was taken for the determination of radioactive content by scintillation counting (Packard Opti Phase Supermix scintillation fluid). Only data derived from within the linear part of the assay (10–70% lysis) were utilized. The percentage inhibition of MMP9 by each tetracycline concentration were plotted to derive the IC50 value.

Human recombinant MMP14 = Human recombinant MMP14 (Homo sapiens, UniProt P50281); test: MMP14 (MTI-MMP) inhibition, 14C collagen release; type: biochemical; conditions: 35° C., 15 hours; read-out: MMP-14 inhibitory activity, IC50
Procedure: Protocol for Measuring MMP14 (MTI-MMP) Inhibition by Tetracycline Derivatives
MMP14 activity was determined by the release of soluble ^14C labelled collagen fragments from ^14C acetylated rat skin type I collagen (Methods in Enzymology 80 711, 1981).
• 100 μg ^14C labelled collagen (5–6000 dpm) • 50 mM Tris HCL pH 7.9 • 15 mM CaCl2 0.02% azide • Human recombinant MMP14 50–100 nM • ±Tetracycline (up to 1 mM) in a total volume of 300 μl.
Incubations were at 35° C. for 15 hours. Uncleaved collagen fibrils (which form within the first 10 minutes) were removed by centrifugation at 10,000 g 4° C. 10 minutes 200 μl supernatant were counted in Packard Opti Phase Supermix scintillation fluid using a scintillation counter. Only data derived from within the linear part of the assay (10–70% lysis of the collagen) were utilized. Based on percentage inhibition of the activity of MMP1 alone by a range of concentrations of each sample, the IC50 value for each tetracycline was calculated.

[1] = test system: PC-3 ML human prostate cancer cells; test: Membrane Invasion Culture System (MICS) chemo-invasion assay; type: cell-based; conditions: 24 hours, + = increased invasiveness
Source text: (§1) Another objective was to analyze the effects of specific, tetracycline derived compounds on the in-vitro chemo-invasive potential of: • C8161 human melanoma cells • MDA-MB-231 human breast cancer cells • PC3 human prostate cancer cells • RPM18226 human myeloma cancer cells • Ark human myeloma cancer cells • Arp-1 human myeloma cancer cells
(§2) The Membrane Invasion Culture System (MICS) in vitro chemo-invasion assay was chosen to measure changes in the invasive potential of specific human cancer cells in response to tetracycline derived compounds. Stock solutions of each compound were hydrated in water containing 2% DMSO and pH 10.0. Upon solubilization, HCl was added to the solution to establish a pH of 7.5–8.0. This solution was then wrapped in foil and kept at 4° C. during the 24 hours of assay. Fresh compound was prepared for each assay. The in vitro chemoinvasion analyses for tumor cell invasiveness are performed using the Membrane Invasion Culture System (MICS) as previously described.
(§3) The MICS system is a thermally treated plastic manifold system consisting of two matched sets of plates containing fourteen wells, 13 mm in diameter. Interposed between these plates was a polycarbonate filter containing 10 μm pores and coated with a defined matrix composed of human laminin/collagen IV/gelatin that formed a 35 μm thick barrier between the top and bottom sections of the wells in MICS. Prior to placing this barrier in place, the lower wells were filled with serum-free RPMI culture medium made 50% in conditioned medium obtained from 2-day-old cultures of human fibroblasts which had been cleared of cells and cellular debris by either centrifugation, or filtering through a 0.45 μm sterile filter. The barrier was then placed on the lower wells and fresh serum-free medium added to the upper wells after assembly of the system. Fifty thousand tumor cells were then added to the wells either in the presence of the compound, or the DMSO vehicle (the controls). Of the 12 assay wells on each manifold, 3 randomized wells acted as controls, 3 wells received 1 μg/ml of compound, 3 received 10 μg/ml and 3 received 25 μg/ml. After 24 hours, cells and media were removed from the lower wells and replaced by phosphate buffered saline plus 2 mM EDTA. This solution was used to remove all cells from the lower well, and this wash was added to the recovered cells plus medium from the same well. These samples were then collected onto a polylysine containing polycarbonate membrane containing 3 μm pores using a Dot-Blot manifold system. These collection filters were then fixed in methanol, and stained using Wright's stain (Leukostat staining kit) in situ. The filters were then mounted on microscope slides with microscope immersion oil (which reduced the light refraction from the pores) and 5 microscopic fields were counted to calculate the number of cells which invaded through the membrane over the 24 hour period. These numbers were then statistically analyzed as discussed below.

[2] = test system: RPMI-8226 human myeloma cancer cells; test: as above; type: cell-based; conditions: 24 hours, + = increased invasiveness
Source text: as §1, §2, §3

MMP2 (Gelatinase A) = target: T2, MMP2 (Gelatinase A) (Homo sapiens, UniProt P08253); test: MMP2 (Gelatinase A) inhibition, 14C gelatin release; type: biochemical; conditions: 37° C., 16 hours; read-out: MMP-2 inhibitory activity, IC50
T2 sequence (P08253 110-660): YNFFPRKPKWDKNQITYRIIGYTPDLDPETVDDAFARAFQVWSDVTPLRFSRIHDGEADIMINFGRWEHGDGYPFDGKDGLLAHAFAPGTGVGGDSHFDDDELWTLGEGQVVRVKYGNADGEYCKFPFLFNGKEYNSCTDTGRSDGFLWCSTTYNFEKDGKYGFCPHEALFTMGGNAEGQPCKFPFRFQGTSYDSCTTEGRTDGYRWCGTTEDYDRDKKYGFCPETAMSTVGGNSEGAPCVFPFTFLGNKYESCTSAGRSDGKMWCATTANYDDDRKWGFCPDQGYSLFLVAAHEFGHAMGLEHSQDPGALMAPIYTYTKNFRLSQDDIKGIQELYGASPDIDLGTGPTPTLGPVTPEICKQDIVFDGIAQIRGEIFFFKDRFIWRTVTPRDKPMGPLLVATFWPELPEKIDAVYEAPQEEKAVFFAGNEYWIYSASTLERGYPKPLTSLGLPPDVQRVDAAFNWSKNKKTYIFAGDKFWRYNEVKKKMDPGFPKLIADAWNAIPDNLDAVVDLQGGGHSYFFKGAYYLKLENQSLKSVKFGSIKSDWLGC

Human recombinant MMP3 = Human recombinant MMP3 (Homo sapiens, UniProt P08254); test: MMP3 (Stromelysin 1) inhibition, 14C casein release; type: biochemical; conditions: 37° C., 16 hours; read-out: MMP-3 inhibitory activity, IC50
[3] = test system: MDA-MB-231 human breast cancer cells; test: Membrane Invasion Culture System (MICS) chemo-invasion assay; type: cell-based; conditions: 24 hours, + = increased invasiveness
Source text: as §1, §2, §3

[4] = test system: C8161 human melanoma cells; test: as above; type: cell-based; conditions: 24 hours, + = increased invasiveness
Source text: as §1, §2, §3

Sequence of Human recombinant MMP3 (P08254 100-477): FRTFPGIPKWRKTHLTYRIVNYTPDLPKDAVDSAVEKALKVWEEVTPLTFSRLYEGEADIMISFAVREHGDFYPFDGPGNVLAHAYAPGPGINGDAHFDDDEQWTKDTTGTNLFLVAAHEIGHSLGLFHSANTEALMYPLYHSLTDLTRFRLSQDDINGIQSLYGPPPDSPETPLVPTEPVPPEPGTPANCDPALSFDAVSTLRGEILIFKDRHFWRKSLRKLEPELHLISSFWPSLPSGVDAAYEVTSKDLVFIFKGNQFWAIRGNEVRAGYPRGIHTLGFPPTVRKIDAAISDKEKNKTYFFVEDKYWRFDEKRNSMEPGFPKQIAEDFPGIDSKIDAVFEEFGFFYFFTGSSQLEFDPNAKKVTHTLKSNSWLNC
Sequence of Human recombinant MMP9 (P14780 94-707): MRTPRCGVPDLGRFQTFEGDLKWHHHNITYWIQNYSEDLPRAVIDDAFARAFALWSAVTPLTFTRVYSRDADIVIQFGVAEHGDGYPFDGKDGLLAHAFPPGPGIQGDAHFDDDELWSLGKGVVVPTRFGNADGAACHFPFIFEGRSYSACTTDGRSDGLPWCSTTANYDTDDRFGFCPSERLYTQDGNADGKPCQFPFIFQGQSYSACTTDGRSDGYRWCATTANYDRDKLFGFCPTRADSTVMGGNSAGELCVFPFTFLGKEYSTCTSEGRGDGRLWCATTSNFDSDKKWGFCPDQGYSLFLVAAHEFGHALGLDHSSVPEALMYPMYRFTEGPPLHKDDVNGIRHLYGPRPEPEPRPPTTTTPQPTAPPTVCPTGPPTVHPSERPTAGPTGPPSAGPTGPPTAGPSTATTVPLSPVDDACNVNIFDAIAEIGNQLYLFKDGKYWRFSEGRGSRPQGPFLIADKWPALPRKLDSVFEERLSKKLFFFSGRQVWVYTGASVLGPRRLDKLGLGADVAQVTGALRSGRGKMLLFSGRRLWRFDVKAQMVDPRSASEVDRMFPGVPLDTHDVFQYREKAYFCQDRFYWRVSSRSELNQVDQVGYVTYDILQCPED

Row | SMILES | pIC50 (Human recombinant MMP1) | pIC50 (Human recombinant MMP9) | pIC50 (Human recombinant MMP14) | percent inhibition, PC-3 ML (Prostrate) ([1]; 25 ug/mL) | percent inhibition, RPMI-8226 (Multiple Myeloma) ([2]; 10 ug/mL) | pIC50 (MMP2 (Gelatinase A)) | pIC50 (Human recombinant MMP3) | percent inhibition, PC-3 ML (Prostrate) ([1]; 1 ug/mL) | percent inhibition, PC-3 ML (Prostrate) ([1]; 10 ug/mL) | percent inhibition, RPMI-8226 (Multiple Myeloma) ([2]; 1 ug/mL) | percent inhibition, RPMI-8226 (Multiple Myeloma) ([2]; 25 ug/mL) | percent inhibition, MDA-MB-231 (Breast) ([3]; 1 ug/mL) | percent inhibition, MDA-MB-231 (Breast) ([3]; 10 ug/mL) | percent inhibition, MDA-MB-231 (Breast) ([3]; 25 ug/mL) | percent inhibition, C8161 (Melanoma) ([4]; 1 ug/mL) | percent inhibition, C8161 (Melanoma) ([4]; 10 ug/mL) | percent inhibition, C8161 (Melanoma) ([4]; 25 ug/mL)
1 | CC(=O)N(CC(C)C)c1ccc(O)c2c1C(C)C1C(=C(O)C3(O)C(=O)C(C(N)=O)=C(O)C(N(C)C)C3C1O)C2=O.O=S(=O)(O)O (stereo not shown) [Compound 29, 7-Acetylisobutylamino-6-deoxy-5-hydroxytetracycline H2SO4] | 3.05 | 3.76 | 4.01 | 58% and 69% | 12% and 13% | 3.01 | 3.67 |  |  |  |  |  |  |  |  |  | 
2 | CC1c2c(N)cc(C(C)(C)C)c(O)c2C(=O)C2=C(O)C3(O)C(=O)C(C(N)=O)=C(O)CC3C(O)C21.O=S(=O)(O)O (stereo not shown) [Compound 49, 7-Amino-9-tertbutyl-4-dedimethyl-6-deoxy-5-hydroxy-tetracycline-H2SO4] | 3.43 | 3.31 | 4.06 | 6% | +2% | 2.80 | 3.85 | 4% | +5% | 11% | 15% | 6% | +5% | +1% | 27^B percent | 7% | 30^B percent
3 | CC1c2ccc(C(C)(C)C)c(O)c2C(=O)C2=C(O)C3(O)C(=O)C(C(N)=O)=C(O)C(N(C)C)C3C(O)C21 (stereo not shown) [Compound 39, 9-tertbutyl-6-deoxy-5-hydroxytetracycline H2SO4] | 3.07 | 3.94 | 4.08 | 69^B percent | 10% | 3.73 | 3.17 | 44^B percent | 67^B percent | 5% | 46^B percent | 18^B percent | 29^B percent | 76^B percent | 10% | 11% | 24%
4 | CC1c2ccc([N+]#N)c(O)c2C(=O)C2=C(O)C3(O)C(=O)C(C(N)=O)=C(O)CC3C(O)C21.O=S(=O)([O-])O (stereo not shown) [Compound 37, 4-Dedimethylamino-6-deoxy-5-hydroxytetracycline-9-diazonium sulfate] | 3.55 | 3.35 | 4.39 | 36% | 5% | < 3.00 | 3.56 | 11% | 26% | 10% | 46^B percent | +6% | 1% | 46^B percent | +1% | 20% | 69^B percent
5 | CN(C)c1ccc(O)c2c1CC1CC3CC(O)=C(C(N)=O)C(=O)C3(O)C(O)=C1C2=O (stereo not shown) [Compound 41, 4-Dedimethylamino-7-dimethylamino-6-demethyl-6-deoxy-tetracycline H2SO4] | 3.32 | 3.60 | 3.39 | 4% | +6% | 3.05 | 4.27 | +4% | 4% | 7% | 14% | +8% | 3% | 2% | 2% | 8% | 6%
6 | CC(=O)OC1C2C(=C(O)C3(O)C(=O)C(C(N)=O)=C(O)C(N(C)C)C13)C(=O)c1c(O)cccc1C2C (stereo not shown) [Compound 28, 6-Deoxy-5-acetoxy-tetracycline H2SO4] | < 3.00 | 3.90 | 4.31 | 80% and 61% |  | < 3.00 | 3.64 |  |  | 4% and 5% | 34^B percent and 62^B percent |  |  | 54^B percent and 45^B percent |  |  | 
7 | CC1c2c(N(NC(=O)OCc3ccccc3)C(=O)OCc3ccccc3)ccc(O)c2C(=O)C2=C(O)C3(O)C(=O)C(C(N)=O)=C(O)C(N(C)C)C3C(O)C21.Cl (stereo not shown) [Compound 47, 7-(1,2-benzylcarboxyhydrazine)-6-deoxy-5-hydroxy-tetracycline HCl] | 3.50 | 4.06 | 4.22 | 5% | 18% | 3.93 | 4.17 | 3% | 3% | 28% | 60^B percent | +17% | +16^B percent | 0% | +30% | +4% | +2%
8 | CC(C)CN(C)c1ccc(O)c2c1C(C)C1C(=C(O)C3(O)C(=O)C(C(N)=O)=C(O)C(N(C)C)C3C1O)C2=O (stereo not shown) [Compound 27, 7-Isobutylmethylamino-6-deoxy-5-hydroxytetracycline H2SO4] | 3.30 | 4.00 | 4.04 | 70% | 6% and 9% | 3.02 | 3.83 | 17^B percent and 9% | 35^B percent and 56^B percent | 24^B percent and 20% |  |  |  | 72^B percent and 48^B percent |  |  | 
